# Entries after “also recorded” stand apart in the source; their conditions may differ. Like-named read-outs stand apart in the source and are kept apart here.
# Columns and labels:
# [1] = test system: Eμ-myc lymphoma cells overexpressing Bcl-2; experiment: Eμ-myc lymphoma cell killing; type: cell-based, mice; conditions: FIG. 9
# Description: (§1) The specificity and selectivity of this class Mcl-1 inhibitors was further confirmed by using cell lines developed by retroviral transduction of lymphoma cells isolated from Eμ-myc transgenic mice which survival depends on the expression of individual prosurvival protein (see, e.g., Whitecross K F, Alsop A E, Cluse L A, Wiegmans A, Banks K M, et al. 2009. […].
# [2] = test system: Eμ-myc lymphoma cells overexpressing Bcl-xL; experiment: Eμ-myc lymphoma cell killing; type: cell-based, mice; conditions: FIG. 9
# Description: as §1
# [3] = target: T1, Mcl-1 (Homo sapiens (Human), UniProt Q07820); conditions: cited from earlier work
# [4] = target: T1, Mcl-1; conditions: for did not bind to Mcl-1 up to: highest concentration tested
# [5] = target: Bcl-2 (Homo sapiens, UniProt P10415); experiment: Fluorescence polarization-based competitive binding assay (FAM-BID tracer)
# [6] = target: Bcl-xL (Homo sapiens (Human), UniProt Q07817, DEL45-85); experiment: as above; conditions: for Ki: Table 2, tested up to 20 μM, read-out: Bcl-XL Ki ± SD
# [7] = test system: Eμ-myc lymphomas overexpressing Mcl-1; experiment: Eμ-myc lymphoma cell killing; type: cell-based, mice; conditions: FIG. 9
# Description: as §1
# [8] = read-out: Bcl-2 Ki ± SD; Table 2; tested up to 20 μM
# [9] = Table 2; tested up to 20 μM; read-out: Bcl-2 Ki ± SD
# Bcl-xL, sequence (Q07817 with tags, fused parts or gaps DEL45-85): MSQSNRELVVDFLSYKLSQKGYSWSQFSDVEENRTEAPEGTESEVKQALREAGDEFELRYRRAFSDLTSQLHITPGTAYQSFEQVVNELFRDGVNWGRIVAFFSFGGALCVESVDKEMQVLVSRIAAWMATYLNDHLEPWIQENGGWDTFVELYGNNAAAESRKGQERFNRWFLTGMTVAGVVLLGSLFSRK
# Bcl-2, sequence (P10415 whole entry, looked up): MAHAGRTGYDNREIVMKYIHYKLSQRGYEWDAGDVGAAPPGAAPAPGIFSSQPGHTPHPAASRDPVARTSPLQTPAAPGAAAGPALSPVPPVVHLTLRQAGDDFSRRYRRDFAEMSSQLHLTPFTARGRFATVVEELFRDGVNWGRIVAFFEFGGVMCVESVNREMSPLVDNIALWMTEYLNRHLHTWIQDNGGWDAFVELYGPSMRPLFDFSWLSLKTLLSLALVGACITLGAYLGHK
structure (smiles),measurement,setting,value
"CC1(C)CCC(c2ccc(Cl)cc2)=C(CN2CCN(c3ccc(C(=O)NS(=O)(=O)c4ccc(N[C@H](CCN5CCOCC5)CSc5ccccc5)c(S(=O)(=O)C(F)(F)F)c4)cc3)CC2)C1 [ABT-263, reference compound]",effect on Eμ-myc lymphoma cells dependent on Bcl-2,[1],kills
same,effect on Eμ-myc lymphoma cells dependent on Bcl-xL,[2],kills
CN(C)CC[C@H](CSc1ccccc1)Nc1ccc(S(=O)(=O)NC(=O)c2ccc(N3CCN(Cc4ccccc4-c4ccc(Cl)cc4)CC3)cc2)cc1[N+](=O)[O-] [ABT-737],binding to Mcl-1,[3],fails to bind
"Cc1nn(C)c2nc(-c3ccco3)cc(C(=O)O)c12 [Compound 3, 6-(Furan-2-yl)-1,3-dimethyl-1H-pyrazolo[3,4-b]pyridine-4-carboxylic acid]",did not bind to Mcl-1 up to,[4],> 200 µM
"Cc1cc(C(=O)O)c2c(C)nn(C)c2n1 [Compound 5, 1,3,6-Trimethyl-1H-pyrazolo[3,4-b]pyridine-4-carboxylic acid]",did not bind to Mcl-1 up to,[4],> 200 µM
"Cc1nn(Cc2ccccc2)c2nc(-c3ccco3)cc(C(=O)O)c12 [Compound 6, 1-Benzyl-6-(furan-2-yl)-3-methyl-1H-pyrazolo[3,4-b]pyridine-4-carboxylic acid]",change in potency compared to 2,[4]; vs compound 2,slight increase in potency
"Cc1nn(Cc2ccc(Oc3ccccc3)cc2)c2nc(-c3ccco3)cc(C(=O)O)c12 [Compound 8, 6-(Furan-2-yl)-3-methyl-1-(4-phenoxybenzyl)-1H-pyrazolo[3,4-b]pyridine-4-carboxylic acid]",Ki,[5]; [8],> 4 µM
"Cc1nn(Cc2ccc(Oc3ccccc3)cc2)c2nc(/C=C/c3ccccc3)cc(C(=O)O)c12 [Compound 16, (E)-3-methyl-1-(4-phenoxybenzyl)-6-styryl-1H-pyrazolo[3,4-b]pyridine-4-carboxylic acid]",Ki,[5]; [8],3.16 ± 1.03 µM
same,Ki,[6],3.55 ± 0.3 µM
Cc1cc(Oc2ccc(Cn3nc(C)c4c(C(=O)O)cc(-c5ccco5)nc43)cc2)cc(C)c1Cl [Compound 57],effect on Eμ-myc lymphoma cells dependent on Bcl-2,[1],did not show effect; also recorded: not affected
same,effect on Eμ-myc lymphoma cells dependent on Mcl-1,[7],led to sensitization; also recorded: selective killing
same,effect on Eμ-myc lymphoma cells dependent on Bcl-xL,[2],did not show effect; also recorded: not affected
same,Ki,[5]; [9],1.95 ± 0.2 µM
same,Ki,[6],> 5 µM
same,no binding to Bcl-xL up to,[6]; highest concentration tested,> 20 µM
Cc1nn(Cc2ccc(Oc3cccc4ccccc34)cc2)c2nc(-c3ccco3)cc(C(=O)O)c12 [Compound 58],Ki,[5]; [9],> 4 µM
same,Ki,[6],> 5 µM
